# According to article PMC10882719 (Frontiers in Neuroscience, 2024):
# Read-outs that look alike come from different tables or passages of the source.
# Experiments:
# Type in all cases: cell-based
# 168 GPCRs [1] = target: T1, 168 GPCRs (Homo sapiens, UniProt O43603)
# T1 construct: host or cells: PathHunter cell lines
# T1 sequence (O43603 1-387): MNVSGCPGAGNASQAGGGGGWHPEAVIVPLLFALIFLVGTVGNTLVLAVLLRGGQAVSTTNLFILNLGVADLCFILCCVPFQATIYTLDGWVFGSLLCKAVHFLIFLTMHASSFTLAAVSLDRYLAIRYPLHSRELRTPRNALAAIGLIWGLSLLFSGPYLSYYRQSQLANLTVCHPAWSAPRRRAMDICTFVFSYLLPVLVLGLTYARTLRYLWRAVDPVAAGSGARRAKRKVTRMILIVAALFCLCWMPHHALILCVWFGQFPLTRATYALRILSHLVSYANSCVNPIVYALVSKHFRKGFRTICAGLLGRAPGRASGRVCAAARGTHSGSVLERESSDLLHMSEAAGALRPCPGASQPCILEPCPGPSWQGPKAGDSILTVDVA
# 168 GPCRs [2] = target: T2, 168 GPCRs (Homo sapiens, UniProt P41586)
# T2 construct: host or cells: PathHunter cell lines
# T2 sequence (P41586 21-468): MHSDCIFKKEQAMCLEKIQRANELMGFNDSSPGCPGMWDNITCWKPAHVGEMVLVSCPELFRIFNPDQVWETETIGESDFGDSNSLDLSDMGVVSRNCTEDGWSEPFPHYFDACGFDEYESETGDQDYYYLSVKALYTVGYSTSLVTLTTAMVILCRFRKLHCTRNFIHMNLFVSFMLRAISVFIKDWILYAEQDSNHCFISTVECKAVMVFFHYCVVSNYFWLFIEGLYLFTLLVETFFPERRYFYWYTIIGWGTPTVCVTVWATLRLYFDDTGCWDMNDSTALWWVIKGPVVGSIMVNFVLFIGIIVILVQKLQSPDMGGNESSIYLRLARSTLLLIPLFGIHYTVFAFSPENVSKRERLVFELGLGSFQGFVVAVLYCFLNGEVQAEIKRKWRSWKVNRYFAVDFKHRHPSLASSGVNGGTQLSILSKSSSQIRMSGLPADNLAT
# 168 GPCRs [3] = target: T3, 168 GPCRs (Homo sapiens, UniProt P47898); details: HTR5A
# T3 construct: host or cells: PathHunter cell lines
# 168 GPCRs [4] = target: T4, 168 GPCRs (Homo sapiens, UniProt P48546); details: GIPR
# T4 construct: host or cells: PathHunter cell lines
# T4 sequence (P48546 22-466): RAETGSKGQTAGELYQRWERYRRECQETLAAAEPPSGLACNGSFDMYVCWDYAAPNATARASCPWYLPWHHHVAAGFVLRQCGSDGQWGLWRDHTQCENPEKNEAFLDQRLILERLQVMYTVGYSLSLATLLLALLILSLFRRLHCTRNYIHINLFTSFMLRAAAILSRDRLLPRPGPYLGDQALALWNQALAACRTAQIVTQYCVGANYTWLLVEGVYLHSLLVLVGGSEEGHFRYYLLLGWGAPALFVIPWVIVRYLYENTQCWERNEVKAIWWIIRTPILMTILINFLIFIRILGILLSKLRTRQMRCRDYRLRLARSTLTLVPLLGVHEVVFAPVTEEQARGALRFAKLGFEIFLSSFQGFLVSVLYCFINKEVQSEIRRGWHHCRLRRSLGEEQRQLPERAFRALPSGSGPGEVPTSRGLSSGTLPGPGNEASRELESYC
# 168 GPCRs [5] = target: T5, 168 GPCRs (Homo sapiens, UniProt P49146); details: NPY2R
# T5 construct: host or cells: PathHunter cell lines
# T5 sequence (P49146 1-381): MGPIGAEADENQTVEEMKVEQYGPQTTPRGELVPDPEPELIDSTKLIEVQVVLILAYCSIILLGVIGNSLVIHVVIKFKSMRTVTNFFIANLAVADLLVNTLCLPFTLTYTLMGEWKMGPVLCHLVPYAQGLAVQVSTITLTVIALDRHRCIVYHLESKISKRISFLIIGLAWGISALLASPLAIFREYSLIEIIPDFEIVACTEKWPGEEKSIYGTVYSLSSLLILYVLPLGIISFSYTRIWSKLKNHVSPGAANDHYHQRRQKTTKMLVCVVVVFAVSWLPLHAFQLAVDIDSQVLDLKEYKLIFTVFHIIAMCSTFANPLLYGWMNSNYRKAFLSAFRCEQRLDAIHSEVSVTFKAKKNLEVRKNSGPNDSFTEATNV
# 168 GPCRs [6] = target: T6, 168 GPCRs (Homo sapiens, UniProt Q8NFJ6); details: PROKR2
# T6 construct: host or cells: PathHunter cell lines
# 168 GPCRs [7] = target: T7, 168 GPCRs (Homo sapiens, UniProt Q8TDS5); details: OXER1
# T7 construct: host or cells: PathHunter cell lines
# T7 sequence (Q8TDS5 whole entry): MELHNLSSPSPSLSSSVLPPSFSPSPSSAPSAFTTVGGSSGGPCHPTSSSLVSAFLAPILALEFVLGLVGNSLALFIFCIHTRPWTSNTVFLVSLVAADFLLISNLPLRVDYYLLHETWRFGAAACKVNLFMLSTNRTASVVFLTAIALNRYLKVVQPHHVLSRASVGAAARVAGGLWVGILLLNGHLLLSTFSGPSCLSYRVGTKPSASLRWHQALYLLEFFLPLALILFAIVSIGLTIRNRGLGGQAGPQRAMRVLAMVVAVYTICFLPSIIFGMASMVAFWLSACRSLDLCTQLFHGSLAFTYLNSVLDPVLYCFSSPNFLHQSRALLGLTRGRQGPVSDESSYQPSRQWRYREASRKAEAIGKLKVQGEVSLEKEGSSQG
# T6 sequence (Q8NFJ6 whole entry): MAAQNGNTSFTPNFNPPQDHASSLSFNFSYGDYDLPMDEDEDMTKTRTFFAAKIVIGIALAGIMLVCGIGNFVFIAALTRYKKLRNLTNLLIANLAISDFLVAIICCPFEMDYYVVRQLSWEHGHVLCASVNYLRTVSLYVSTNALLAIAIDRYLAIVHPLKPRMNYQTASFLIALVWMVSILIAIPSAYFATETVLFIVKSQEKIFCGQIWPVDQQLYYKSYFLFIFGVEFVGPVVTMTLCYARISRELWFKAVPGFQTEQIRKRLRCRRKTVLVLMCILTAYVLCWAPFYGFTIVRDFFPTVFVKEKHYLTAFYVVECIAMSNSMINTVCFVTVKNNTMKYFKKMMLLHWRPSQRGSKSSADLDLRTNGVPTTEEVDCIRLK
# T3 sequence (P47898 whole entry): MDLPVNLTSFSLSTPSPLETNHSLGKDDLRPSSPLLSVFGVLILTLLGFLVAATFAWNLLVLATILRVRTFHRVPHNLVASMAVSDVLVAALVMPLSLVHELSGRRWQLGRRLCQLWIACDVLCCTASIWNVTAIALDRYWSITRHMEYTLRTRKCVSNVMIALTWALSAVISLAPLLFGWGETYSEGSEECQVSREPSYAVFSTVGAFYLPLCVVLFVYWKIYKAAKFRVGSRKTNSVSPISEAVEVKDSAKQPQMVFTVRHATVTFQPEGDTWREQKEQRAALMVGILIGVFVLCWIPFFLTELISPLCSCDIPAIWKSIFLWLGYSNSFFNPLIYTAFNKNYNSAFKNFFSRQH
SMILES,"% Agonist Activity (168 GPCRs [1]; GALR2, 1 uM) [%]","% Antagonist Activity (168 GPCRs [1]; GALR2, 1 uM) [%]","% Agonist Activity (168 GPCRs [1]; GALR2, 10 uM) [%]","% Antagonist Activity (168 GPCRs [1]; GALR2, 10 uM) [%]","% Agonist Activity (168 GPCRs [2]; ADCYAP1R1, 1 uM) [%]","% Antagonist Activity (168 GPCRs [2]; ADCYAP1R1, 1 uM) [%]","% Agonist Activity (168 GPCRs [2]; ADCYAP1R1, 10 uM) [%]","% Antagonist Activity (168 GPCRs [2]; ADCYAP1R1, 10 uM) [%]",% Antagonist Activity (168 GPCRs [3]; 1 uM) [%],% Antagonist Activity (168 GPCRs [3]; 10 uM) [%],% Agonist Activity (168 GPCRs [4]; 1 uM) [%],% Antagonist Activity (168 GPCRs [4]; 1 uM) [%],% Agonist Activity (168 GPCRs [4]; 10 uM) [%],% Antagonist Activity (168 GPCRs [4]; 10 uM) [%],% Agonist Activity (168 GPCRs [5]; Conc 1 uM) [%],% Antagonist Activity (168 GPCRs [5]; Conc 1 uM) [%],% Agonist Activity (168 GPCRs [5]; Conc 10 uM) [%],% Antagonist Activity (168 GPCRs [5]; Conc 10 uM) [%],% Agonist Activity (168 GPCRs [6]; Conc 1 uM) [%],% Antagonist Activity (168 GPCRs [6]; Conc 1 uM) [%],further results
CNC(C)C(=O)c1ccc2c(c1)OCO2 (stereo not shown) [methylone],3.4,7,1.9,1.5,-4,13.6,-3,12.5,9.8,1.6,-2.9,-1,-5.8,-5.1,-0.1,2.3,0.2,2,-0.6,2,% Agonist Activity (168 GPCRs [6]; Conc 10 uM): -0.6%; % Antagonist Activity (168 GPCRs [6]; Conc 10 uM): -6.8%; % Agonist Activity (168 GPCRs [7]; Conc 1 uM): 3.2%; % Antagonist Activity (168 GPCRs [7]; Conc 1 uM): 2.9%; % Agonist Activity (168 GPCRs [7]; Conc 10 uM): -3.7%; % Antagonist Activity (168 GPCRs [7]; Conc 10 uM): 7.6%
"CNC(C)Cc1ccc2c(c1)OCO2 (stereo not shown) [MDMA, 3,4-Methylenedioxy methamphetamine, reference compound]",-2.9,-5.1,-3,-7.3,-0.3,-0.9,-0.8,-0.1,-16.4,-6.4,-2.6,-0.1,-3.3,-0.1,-0.1,12,0.2,4.8,-0.6,14.4,% Agonist Activity (168 GPCRs [6]; Conc 10 uM): -0.3%; % Antagonist Activity (168 GPCRs [6]; Conc 10 uM): 19.4%; % Agonist Activity (168 GPCRs [7]; Conc 1 uM): 6.3%; % Antagonist Activity (168 GPCRs [7]; Conc 1 uM): -7.5%; % Agonist Activity (168 GPCRs [7]; Conc 10 uM): 4.8%; % Antagonist Activity (168 GPCRs [7]; Conc 10 uM): -1.7%
